# According to patent US20240277677A1, “SALT FORM AND CRYSTAL FORM THEREOF OF SULFONYLUREA RING SUBSTITUTED COMPOUND” (priority 2022, published 2024):
# What was measured:
# [1] = Solid stability study of the crystal form A (high temperature, high humidity, light; XRPD, appearance, content, related substances); type: physicochemical
# [2] = tested on: Enterobacter cloacae ATCC BAA-1143 (AmpC); assay: Antibacterial activity MIC, micro-liquid dilution method (CLSI); type: cell-based; conditions: ATCCBAA1143, E. cloacae ATCC BAA-1143 Class C (AmpC)
# Excerpt: (§1) Three strains of Klebsiella pneumonia, ATCC BAA-205 (TEM-1/SHV-1/SHV-12), ATCC BAA-1705 (KPC-2), ATCC BAA-2470 (NDM-1), Enterobacter cloacae ATCC BAA-1143 (AmpC), two strains of Escherichia coli ATCC BAA-2523(OXA-48), ATCC 25922 were used to determine the minimum inhibitory concentration (MIC) of each of the compounds by a micro-liquid dilution method according to the Institute of Clinical and Laboratory Standard (CLSI) requirements. A 2-fold serial dilution of the compound (final concentration ranging from 0.125 μg/ml to 128 µg/ml) was added to a round-bottom 96-well plate (Catalog #3788, Corning), fresh monoclonal bacteria were selected from an overnight cultured Mueller Hinton II Agar medium plate (MHA, Cat. No. 211438, BD BBL™) and suspended in sterile saline, the concentration was adjusted to 1×10^8 CFU/mL, and then the solution was diluted by using a cation-adjusted Hinton Mueller culture medium Cation-Adjusted Mueller Hinton II Broth (MHB, Catalog #212332, BD BBL™) to a concentration of 5×10^5 CFU/ml, and 100 μl of the solution was added to a round bottom 96-well plate containing the drugs. The plate was placed upside down at 37° C. and the MIC value was read after 20-24 h of incubation, and the lowest drug concentration that inhibited the growth of bacteria was set as MIC. For the results see Table 1. Colony-Forming Units (CFU) refers to the total number of bacterial colonies per unit volume.
# [3] = tested on: Escherichia coli ATCC 25922; assay: as above; type: cell-based; conditions: ATCC25922, E. coli ATCC 25922
# Excerpt: as §1
# [4] = tested on: Klebsiella pneumonia ATCC BAA-1705 (KPC-2); assay: as above; type: cell-based; conditions: Klebsiella pneumoniae, ATCCBAA1705; K. pneumoniae ATCC BAA-1705 Class A (KPC-2)
# Excerpt: as §1
# [5] = tested on: Klebsiella pneumonia ATCC BAA-205 (TEM-1/SHV-1/SHV-12); assay: as above; type: cell-based; conditions: Klebsiella pneumoniae, ATCCBAA205
# Excerpt: as §1
# [6] = tested on: Klebsiella pneumonia ATCC BAA-2470 (NDM-1); assay: as above; type: cell-based; conditions: Klebsiella pneumoniae, ATCCBAA2470; K. pneumoniae ATCC BAA-2470 Class B (NDM-1)
# Excerpt: as §1
# [7] = tested on: Escherichia coli ATCC 25922; assay: Spontaneous drug resistance mutation rate (FOR); type: cell-based; conditions: for Drug resistance frequency (24 h) / Drug resistance frequency (48 h) / Drug resistance frequency (72 h): selected total colony count 2.60E+08 CFU
# Method: Escherichia coli ATCC 25922 was used to carry out a micro-liquid dilution method according to the Institute of Clinical and Laboratory Standard (CLSI) requirements, the colony for selection with a total colony count of 2.60E+08CFU in Colony-Forming Units (CFU) was selected, […], 4, 8, 16, 32-fold of minimum inhibitory concentration (MIC), and the drug resistance frequency was calculated.
# [8] = Light 10 days (visible light intensity 5000 lux and ultraviolet intensity 90 μw/cm^2, open)
compound,measurement,setting,value
NC[C@@H]1CN(C[C@@H]2[C@H](NC(=O)/C(=N\OC3(C(=O)O)CC3)c3csc(N)n3)C(=O)N2S(=O)O)S(=O)(=O)N1 (stereo in doubt),Purity %,[1]; 0 day,85.6%
same,Total impurities %,[1]; 0 day,14.4%
same,Purity %,[1]; 25° C./75% RH-5 days (open),87.4%
same,Total impurities %,[1]; 25° C./75% RH-5 days (open),12.6%
same,Purity %,[1]; 25° C./75% RH-10 days (open),85.4%
same,Total impurities %,[1]; 25° C./75% RH-10 days (open),14.6%
same,Related substances and contents (conclusion),"[1]; 60° C., 25° C./75% RH and light conditions",did not change significantly
same,Purity %,[1]; 60° C.-5 days (open),87.3%
same,Total impurities %,[1]; 60° C.-5 days (open),12.7%
same,Purity %,[1]; 60° C.-10 days (open),86.6%
same,Total impurities %,[1]; 60° C.-10 days (open),13.4%
same,Purity %,[1]; [8],86.4%
same,Total impurities %,[1]; [8],13.6%
same,Purity %,[1]; Light control -10 days,86.8%
same,Total impurities %,[1]; Light control -10 days,13.2%
same,Solid stability (conclusion),"[1]; high temperature, high humidity and light conditions",stable
same,MIC,[2],0.5 mg/L
same,MIC,[3],0.25 mg/L
same,MIC,[4],1 mg/L
same,MIC,[5],0.5 mg/L
same,MIC,[6],0.25 mg/L
same,Drug resistance rate (conclusion),"[7]; 2-fold of MIC, E. coli ATCC 25922",lower drug resistance rate
same,Drug resistance frequency (24 h),[7]; 2 × MIC,<3.85E−09
same,Drug resistance frequency (48 h),[7]; 2 × MIC,<3.85E−09
same,Drug resistance frequency (72 h),[7]; 2 × MIC,=3.85E−09
same,Drug resistance frequency (24 h),[7]; 4 × MIC,<3.85E−09
same,Drug resistance frequency (48 h),[7]; 4 × MIC,<3.85E−09
same,Drug resistance frequency (72 h),[7]; 4 × MIC,<3.85E−09
same,Drug resistance frequency (24 h),[7]; 8 × MIC,<3.85E−09
same,Drug resistance frequency (48 h),[7]; 8 × MIC,<3.85E−09
same,Drug resistance frequency (72 h),[7]; 8 × MIC,<3.85E−09
same,Drug resistance frequency (24 h),[7]; 16 × MIC,<3.85E−09
same,Drug resistance frequency (48 h),[7]; 16 × MIC,<3.85E−09
same,Drug resistance frequency (72 h),[7]; 16 × MIC,<3.85E−09
same,Drug resistance frequency (24 h),[7]; 32 × MIC,<3.85E−09
same,Drug resistance frequency (48 h),[7]; 32 × MIC,<3.85E−09
same,Drug resistance frequency (72 h),[7]; 32 × MIC,<3.85E−09
